From patent publication US7129398B2, “Reversible male sterility in transgenic plants by expression of a GA-insensitive mutant protein, gai” (Monsanto Technology LLC, priority 2001, dated 2006)

Test system: male sterile transgenic plants (pMON42169, TA29-gai)
Test: Fertility restoration of gai male sterile transgenic tobacco plants by chemical spray
Format: in vivo, Nicotiana tabacum
Conditions: for restoration of male fertility: aqueous 0.25% Sylgard 309; for Seed weight: mean of 5 seed sets ± SE
Experimental: Kanamycin resistant F1 seedlings were transferred to soil and grown to flowering stage. After male sterility in the first few flowers was observed, plants from each lines were divided into four groups to receive different treatments every other day. One group received 15 mg of kinetin (a synthetic cytokinin) (Sigma) per plant, while the other two groups received either 10 mg of GA3 (Sigma) or 10 mg of TDZ (Sigma) per plant. The chemicals are in an aqueous solution containing 0.25% of Sylgard 309 surfactant (Willbur-Ellis, Fresno, Calif.) and the last group received surfactant only. The applications continued for two weeks. In another experiment, F1 plants from several male sterile transgenic lines were selected based on resistance to kanamycin and grown to flowering to verify the inheritance of the male sterile phenotype. Each plant was then sprayed with a solution containing 15 mg of kinetin every other day for two weeks. The plants continued to develop male sterile flowers until 10 days after the first application of kinetin. At 10 days post-application, the flowers that developed were male fertile. Flowers from treated plants began visibly shedding pollen whereas untreated flowers remained sterile. Under greenhouse growth conditions, the transition from stage −3 to stage 12 for a tobacco floral bud occurred in approximately 10 days. It appeared that for effective fertility restoration, kinetin needed to be applied prior to stage −2, which coincided with the onset of the TA29 promoter.

[1] = F1 male sterile transgenic tobacco, 10 mg per plant every other day for two weeks

SMILES	restoration of male fertility [1]	restoration of anther development [1]	persistence of production of male fertile flowers post-application (15 mg per plant every other day for two weeks) [days]	time after first application until developing flowers were male fertile (15 mg per plant every other day for two weeks, F1 male sterile transgenic tobacco lines) [days]	restoration of male fertility (F1 male sterile transgenic tobacco, 15 mg per plant every other day for two weeks)	Seed weight (event 782 (S): selfing after fertility restoration) [mg]	Seed weight (event 790 (S): selfing after fertility restoration) [mg]	morphology and seed set of restored flowers (kinetin-restored flowers of male sterile transgenic tobacco)	difference in seed weight, selfed seed of restored flowers vs crossed seed of sterile flowers and selfed seed of wild-type flowers (lines 788 and 790)
O=C(Nc1ccccc1)Nc1cnns1 [TDZ]	did not restore the fertility								
C=C1C[C@]23C[C@@]1(O)CC[C@H]2[C@@]12C=C[C@H](O)[C@@](C)(C(=O)O1)[C@H]2[C@@H]3C(=O)O [GA3]	remained male sterile	did not restore the anther development							
c1coc(CNc2ncnc3[nH]cnc23)c1 [kinetin]			11	10	shed pollen and set seeds	113.0 ± 18.9	110.2 ± 13.5	morphologically normal but also had typical seed sets	no significant difference
